Columns and labels:
[1] = tested on: genotype A, "Long" strain RSV; assay: RSV-A assay (CPE protection in Hep-2 cells, ATPlite readout); assay type: cell-based, Human respiratory syncytial virus (HRSV); settings: human respiratory syncytial virus, genotype A “Long” strain RSV, MOI 0.1, CPE protection, read-out: Human RSV-A (“Long”)
In short: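 Hep-2 cells (8,000/well) infected with RSV Long strain at MOI 0.1 in the presence of 2-fold compound dilutions in duplicate. After 5 days, cell viability measured by ATPlite luminescence, normalized between virus-only and uninfected cell controls; EC50 reported.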

[2] = tested on: HMPV clinical isolate TN/1501/A1; assay: HMPV antiviral assay Method-B (clinical isolate TN/1501/A1 in LLC-MK2 cells, ATP-Lite readout); assay type: cell-based, Human metapneumovirus (HMPV); settings: human metapneumovirus, LLC-MK2, 144 h, hMPV WT1501 (clinical isolate TN/1501/A1), 6 days
Procedure: In vitro HMPV antiviral activity was evaluated using the clinical isolate TN/1501/A1 and LLC-MK2 cells (ATCC #CCL-7), an immortalized kidney epithelial cell line from Macaca mulatta. Compounds were resuspended in dimethyl sulfoxide (DMSO) at 10 mM and added to a 384-well source plate. The compounds were diluted and transferred onto 384-well assay plates using the Echo-650 automated liquid handling system (Beckman Coulter, Indiana). The test compounds were assessed in duplicate at a top concentration of 10 μM followed by 3-fold serial dilutions to give a total of 10 concentration points. DMSO control wells were also included on the assay plates and were either infected or not, acting as positive and negative controls. TN/1501/A1 virus infections were performed in-suspension with LLC-MK2 cells. The cells were washed twice with PBS and removed from the cell-culture flask with 0.25% trypsin-EDTA (Thermo Fisher Scientific, MA). The trypsin-EDTA was inactivated by resuspending in 2% fetal bovine serum (FBS) and OptiMEM (ThermoFisher Scientific, MA) containing 1% penicillin-streptomycin. Cells were pelleted by centrifuging for 5 minutes at 800 rpm, the supernatant was removed, and cells were suspended in PBS plus 100 μg/mL CaCl2). This step was performed twice. Cells were then resuspended in serum-free (SF)-OptiMEM containing 4 μg/mL TPCK-Trypsin (Sigma Aldrich, MO), 1% penicillin-streptomycin (ThermoFisher Scientific, MA) and 100 μg/mL CaCl2). Cells were counted and seeded at a density of 5,000 cells/well, 12.5 μL/well. Virus infections were done at a multiplicity of infection (MOI) of 0.014 with 12.5 μL added per well. SF-OptiMEM, 12.5 μL/well, was added to the appropriate wells to serve as a virus-free negative control for the assay. The final concentration of TPCK-trypsin was 2 μg/mL. Plates were incubated at 37° C., 5% CO2 for 6 days. After 6 days incubation, 12.5 μL of ATP-Lite (PerkinElmer, MA) was added to each well and the raw luminescence values were determined using the Envision 2104 (Perkin Elmer, MA). The average of the raw luminescence values for the cells and virus only positive control wells was subtracted from all conditions tested and the percent cell health was determined by dividing these values by the average of the cells only negative control wells. EC50 values were then calculated by non-linear regression using a four-parameter curve logistic equation. The curve fit model employed was XLFit Dose Response One Site Model 200: y=(A+(B/(1+((x/C)^D)))), where A is the minimum y value, B is the maximum y value, C is the log EC50 value, and D is the slope factor. […] EC50 ranges are as follows: A<0.5 μM; B>0.5 μM.

Compound | EC50 [1] [µM] | EC50 [2] [µM]
Cc1nc2c(Cl)cc(C(=O)NC[C@](O)(c3cc4c(c(-c5ccc(F)cc5)n3)OC[C@]4(C)C(N)=O)C(F)(F)F)cc2[nH]1 [Example 487] | < 0.2 | > 0.5
C[C@]1(C(N)=O)COc2c1cc([C@@](O)(CNC(=O)c1ccnc3nccn13)C(F)(F)F)nc2-c1ccc(F)cc1 [Example 489] | > 0.2 | > 0.5
C[C@]1(C(N)=O)COc2c1cc([C@@](O)(CNC(=O)c1cc(OC3CC3)n3nc(C4CC4)cc3c1)C1CC1)nc2-c1ccc(F)c(Cl)c1 [Example 491] | < 0.2 | < 0.5
Cc1cnc2c(OC(F)F)cc(C(=O)NC[C@](O)(c3cc4c(c(-c5ccc(F)cc5)n3)OC[C@]4(C)C(N)=O)C(F)(F)F)cc2c1 [Example 493] | < 0.2 | < 0.5
Cc1cnc2c(OC(F)F)cc(C(=O)NC[C@](O)(c3cc4c(c(-c5ccc(F)c(Cl)c5)n3)OC[C@]4(C)C(N)=O)C(F)(F)F)cc2c1 [Example 494] | < 0.2 | < 0.5
Cc1cnc2c(OCC(F)F)cc(C(=O)NC[C@](O)(c3cc4c(c(-c5ccc(F)c(Cl)c5)n3)OC[C@]4(C)C(N)=O)C(F)(F)F)cc2c1 [Example 497] | < 0.2 | < 0.5
Cc1cnc2c(OCC(F)F)cc(C(=O)NC[C@](O)(c3cc4c(c(-c5ccc(F)cc5)n3)OC[C@]4(C)C(N)=O)C3CC3)cc2c1 [Example 498] | < 0.2 | < 0.5
Cc1cnc2c(OCC(F)F)cc(C(=O)NC[C@](O)(c3cc4c(c(-c5ccc(F)c(Cl)c5)n3)OC[C@]4(C)C(N)=O)C3CC3)cc2c1 [Example 499] | < 0.2 | < 0.5
Cc1cnc2c(OC(F)(F)F)cc(C(=O)NC[C@](O)(c3cc4c(c(-c5ccc(F)cc5)n3)OC[C@]4(C)C(N)=O)C3CC3)cc2c1 [Example 502] | < 0.2 | < 0.5
Cc1cnc2c(OC(F)(F)F)cc(C(=O)NC[C@](O)(c3cc4c(c(-c5ccc(F)c(Cl)c5)n3)OC[C@]4(C)C(N)=O)C3CC3)cc2c1 [Example 503] | < 0.2 | < 0.5
C[C@]1(C(N)=O)COc2c1cc([C@@](O)(CNC(=O)c1cc(OC3CC3)n3nc(C4CC4)cc3c1)C(F)(F)F)nc2-c1ccc2c(c1)OC(F)(F)O2 [Example 504] | < 0.2 | < 0.5
COc1cc(C(=O)NC[C@](O)(c2cc3c(c(-c4ccc5c(c4)OC(F)(F)O5)n2)OC[C@]3(C)C(N)=O)C(F)(F)F)cc2sc(C)nc12 [Example 505] | < 0.2 | < 0.5
COc1cc(C(=O)NC[C@](O)(c2cc3c(c(-c4ccc(F)c(F)c4F)n2)OC[C@]3(C)C(N)=O)C(F)(F)F)cc2cc(C3CC3)nn12 [Example 507] | < 0.2 | < 0.5
C[C@]1(C(N)=O)COc2c1cc([C@@](O)(CNC(=O)c1cc(OC3CC3)n3nc(C4CC4)cc3c1)C(F)(F)F)nc2-c1ccc(F)c(F)c1F [Example 508] | < 0.2 | < 0.5
COc1cc(C(=O)NC[C@](O)(c2cc3c(c(-c4ccc(F)cc4Cl)n2)OC[C@]3(C)C(N)=O)C(F)(F)F)cc2cc(C3CC3)nn12 [Example 510] | < 0.2 | < 0.5
COc1cc(C(=O)NC[C@](O)(c2cc3c(c(-c4ccc(F)c(F)c4F)n2)OC[C@]3(C)C(N)=O)C(F)(F)F)cc2cc(C(F)(F)F)cnc12 [Example 512] | < 0.2 | > 0.5
Cc1cnc2c(OC(F)(F)F)cc(C(=O)NC[C@](O)(c3cc4c(c(-c5ccc(F)c(F)c5F)n3)OC[C@]4(C)C(N)=O)C(F)(F)F)cc2c1 [Example 515] | < 0.2 | < 0.5
COc1cc(C(=O)NC[C@](O)(c2cc3c(c(-c4ccc(F)cc4Cl)n2)OC[C@]3(C)C(N)=O)C(F)(F)F)cc2cc(C(F)(F)F)cnc12 [Example 516] | < 0.2 | > 0.5
Cc1nc2c(OC3CC3)cc(C(=O)NC[C@](O)(c3cc4c(c(-c5ccc(F)cc5Cl)n3)OC[C@]4(C)C(N)=O)C(F)(F)F)cc2cc1Cl [Example 518] | < 0.2 | < 0.5
COc1cc(C(=O)NC[C@](O)(c2cc3c(c(-c4ccc(F)c(F)c4F)n2)OC[C@]3(C)C(N)=O)C(F)(F)F)cc2cc(Br)cnc12 [Example 520] | < 0.2 | < 0.5
COc1cc(C(=O)NC[C@](O)(c2cc3c(c(-c4cc(Br)c(F)cc4F)n2)OC[C@]3(C)C(N)=O)C(F)(F)F)cc2cn(C3CC3)nc12 [Example 958] |  | < 0.5
COc1cc(C(=O)NC[C@@](O)(c2cc3c(c(-c4cccc(Br)c4F)n2)OC[C@]3(C)C(N)=O)C(F)(F)F)cc2cn(C3CC3)nc12 [Example 959] |  | > 0.5
COc1cc(F)c(-c2nc([C@@](O)(CNC(=O)c3cc(OC)c4nn(C5CC5)cc4c3)C(F)(F)F)cc3c2OC[C@]3(C)C(N)=O)c(F)c1 [Example 962] |  | < 0.5
COc1cc(C(=O)NC[C@](O)(c2cc3c(c(-c4c(F)ccc(F)c4F)n2)OC[C@]3(C)C(N)=O)C(F)(F)F)cc2cn(C3CC3)nc12 [Example 964] |  | < 0.5

Further lines, results first:

EC50 [1] [µM] | EC50 [2] [µM] | Compound
< 0.2 | > 0.5 | Cc1nn(-c2ccccc2)cc1C(=O)NC[C@](O)(c1cc2c(c(-c3ccc(F)cc3)n1)OC[C@]2(C)C(N)=O)C1CC1 [Example 486]
< 0.2 | > 0.5 | C[C@]1(C(N)=O)COc2c1cc([C@@](O)(CNC(=O)c1ccnc3cc[nH]c13)C(F)(F)F)nc2-c1ccc(F)cc1 [Example 488]
< 0.2 | < 0.5 | Cc1cnc2c(OC(F)F)cc(C(=O)NC[C@](O)(c3cc4c(c(-c5ccc(F)cc5)n3)OC[C@]4(C)C(N)=O)C3CC3)cc2c1 [Example 495]
< 0.2 | < 0.5 | Cc1cnc2c(OC(F)F)cc(C(=O)NC[C@](O)(c3cc4c(c(-c5ccc(F)c(Cl)c5)n3)OC[C@]4(C)C(N)=O)C3CC3)cc2c1 [Example 496]
< 0.2 | < 0.5 | Cc1nc2c(Cl)cc(C(=O)NC[C@](O)(c3cc4c(c(-c5ccc(F)c(Cl)c5)n3)OC[C@]4(C)C(N)=O)C3CC3)cc2cc1Cl [Example 500]
< 0.2 | > 0.5 | Cc1cnc2c(OC(F)(F)F)cc(C(=O)NC[C@](O)(c3cc4c(c(-c5ccc(F)cc5)n3)OC[C@]4(C)C(N)=O)C(F)(F)F)cc2c1 [Example 501]
< 0.2 | < 0.5 | COc1cc(C(=O)NC[C@](O)(c2cc3c(c(-c4ccc(F)c(F)c4F)n2)OC[C@]3(C)C(N)=O)C(F)(F)F)cc2cc(Cl)c(C)nc12 [Example 506]
< 0.2 | < 0.5 | COc1cc(C(=O)NC[C@](O)(c2cc3c(c(-c4ccc(F)cc4Cl)n2)OC[C@]3(C)C(N)=O)C(F)(F)F)cc2cc(Cl)c(C)nc12 [Example 509]
< 0.2 | < 0.5 | Cc1cnc2c(Cl)cc(C(=O)NC[C@](O)(c3cc4c(c(-c5ccc(F)c(F)c5F)n3)OC[C@]4(C)C(N)=O)C(F)(F)F)cc2c1 [Example 513]
< 0.2 | < 0.5 | Cc1nc2c(OC3CC3)cc(C(=O)NC[C@](O)(c3cc4c(c(-c5ccc(F)c(F)c5F)n3)OC[C@]4(C)C(N)=O)C(F)(F)F)cc2cc1Cl [Example 514]
< 0.2 | < 0.5 | Cc1cnc2c(Cl)cc(C(=O)NC[C@](O)(c3cc4c(c(-c5ccc(F)cc5Cl)n3)OC[C@]4(C)C(N)=O)C(F)(F)F)cc2c1 [Example 517]
< 0.2 | > 0.5 | Cc1cnc2c(OC(F)(F)F)cc(C(=O)NC[C@](O)(c3cc4c(c(-c5ccc(F)cc5Cl)n3)OC[C@]4(C)C(N)=O)C(F)(F)F)cc2c1 [Example 519]
 | < 0.5 | COc1cc(C(=O)NC[C@@](O)(c2cc3c(c(-c4cc(Br)c(F)cc4F)n2)OC[C@]3(C)C(N)=O)C(F)(F)F)cc2cn(C3CC3)nc12 [Example 957]
 | < 0.5 | COc1cc(C(=O)NC[C@](O)(c2cc3c(c(-c4cccc(Br)c4F)n2)OC[C@]3(C)C(N)=O)C(F)(F)F)cc2cn(C3CC3)nc12 [Example 960]
 | < 0.5 | COc1cc(C(=O)NC[C@](O)(c2cc3c(c(-c4c(F)ccc(Cl)c4F)n2)OC[C@]3(C)C(N)=O)C(F)(F)F)cc2cn(C3CC3)nc12 [Example 963]
